Among the data in patent US11884647B2, “Compounds and methods for targeting pathogenic blood vessels” (THE REGENTS OF THE UNIVERSITY OF CALIFORNIA, priority 2019, dated 2024) are cytotoxicity values, retold here.

Molecules are shown by their SMILES.

The test system of one assay is tumor endothelial cells (CT26.CL25 colon cancer tumor). The assay is described as follows: Colon CT26 ex vivo model of tumor angiogenesis. The format is cell-based. The conditions noted are these: Mus musculus, CT26, 48 h, read-out: Cell death. As to the method:
This example describes a procedure to prepare a primary tumor angiogenesis model for assessing the efficacy of anti-cancer candidate agents.
1. The day before the experiment, spray all necessary tools with 70% ethanol and sterilize them under UV light overnight, including blade, dissecting and micro-dissecting scissors and […]. Place 24-well dishes at 4° C. to pre-chill plates and thaw Matrigel 24 hours before tumor dissection.
2. Spray 70% ethanol on working bench. Prepare two sterile petri dishes with 10 mL sterile PBS. Steps 3 and 4 are for mouse tumor models. For fresh human tumor, directly go to step 5.
3. Euthanize the tumor-bearing mice. Spray 70% ethanol on the mouse and remove the tumor using sterilized dissecting tools (avoid the fur). Rinse the tumor in petri dish with sterile PBS to remove ethanol and fur. Transfer the tumor to a new petri dish with PBS for dissection. Place the dish on ice.
4. Using pre-chilled sterile pipet tips to seed regular Matrigel in 24 well plates on ice. Matrigel (30 μL) is dropped in the middle of each well without touching the edge of the well (avoid introducing bubbles if possible).
5. Cut the tumor in halves using the sterile blade. Identify and isolate healthy tumor tissue that is not necrotic and is within the tumor capsule. Cut the healthy tumor tissue into small pieces. For instance, a suitable size for the tumor tissue is 0.5 mm (H)×0.5 mm (L)×0.3 mm (D) with a total volume of 0.075 mm^3.
6. Gently transfer and embed each tumor piece in the Matrigel drop in the 24-well plate. Place the embedded piece in the bottom and middle of each Matrigel drop. Keep the plate on ice all the time.
7. After seeding the tumor pieces, plates are incubated in a 37° C. cell culture incubator without medium for 10 minutes in order for the Matrigel to solidify.
8. Endothelial Growth Medium (0.5 mL) is added to each well and incubated at 37° C. with 5% CO2. Wait until the new endothelial cells have grown out of the tumor or are larger than 3 mm in diameter until treatment. This usually takes 4 days for the LL2 Lewis lung cancer model and 7 days for the CT26 colon cancer model. For human tumor models, the growth time is typically 2-3 weeks, depending on the tumor type. Media is changed every 4 days during prolonged culture. Typically, when the tumor tissue grows to 2 mm in diameter, it is good for drug testing. A size of about 3 mm in diameter can make visualization easier.
9. When the assay is ready to be analyzed for cell death (e.g., 48 hours after drug addition), prepare the dye mixture by mixing 6 μL of green dye to stain live cells (5 mg/mL Fluorescein diacetate or FDA in DMSO) with 30 μL of red dye (2.5 mg/mL Propidium iodide or PI in PBS) to stain dead cells in an Eppendorf tube. The FDA dye needs to be stored frozen in a −20° C. freezer because it has a labile ester bond.
10. Add 1 μL of the dye mixture to each well of the 24-well dish. It is usually performed one 24-well dish at a time given the amount of time needed to take pictures (the green dye is not as stable in the cells in the long term).
11. Gently rock the dish a few times to mix the dye with the media in the wells and incubate the dish at 37° C. for 10 min (too long incubation can make the green signal too intense).
12. Wash each well with 0.5 mL of sterile PBS and then add 0.5 mL of phenol red free SFM to each well. Alternatively 0.5 mL of regular Endothelial Cell Growth Media can be added to each well if this well needs to be continuously maintained after the experiment.
13. Look through all wells on an inverted microscope using the 2× objective lens to observe morphological changes.
14. Taking pictures in the red and green channels would allow not only the recording of the result but also more accurate quantitation of the result. To take pictures for all the wells, first pick a well that has robust red and green signals. […]
In the case of `CN1CCCN(c2c(S(=O)(=O)c3ccc([N+](=O)[O-])cc3)cnc3ccc(OC(F)(F)F)cc23)CC1` [compound 60, 4-(4-methyl-1,4-diazepan-1-yl)-3-((4-nitrophenyl)sulfonyl)-6-(trifluoromethoxy)quinoline], the cytotoxicity at 40 µM came out at 5%.

For the compound `CCCCOc1ccc2ncc(S(=O)(=O)c3ccc(OC)c(OC)c3)c(N(CC)CC)c2c1` [compound 123, 6-butoxy-3-((3,4-dimethoxyphenyl)sulfonyl)-N,N-diethylquinolin-4-amine], the cytotoxicity at 40 µM worked out at 20%.

For `CCCCN(CCCC)c1c(S(=O)(=O)c2ccc(OC)c(OC)c2)cnc2ccc(SC)cc12` [compound 124, N,N-dibutyl-3-((3,4-dimethoxyphenyl)sulfonyl)-6-(methylthio)quinolin-4-amine], the cytotoxicity at 40 µM is 20%.

On to `CCOC(=O)c1ccc2ncc(S(=O)(=O)c3ccc(CC)cc3)c(N3CCC(O)(c4ccc(CC)cc4)CC3)c2c1` [compound 128, ethyl 4-(4-(4-ethylphenyl)-4-hydroxypiperidin-1-yl)-3-((4-ethylphenyl)sulfonyl)quinoline-6-carboxylate], for which the cytotoxicity at 40 µM was 10%.

As to `CCc1ccc(C2(O)CCN(c3c(S(=O)(=O)c4ccc(OC)cc4)cnc4ccc(OC(F)(F)F)cc34)CC2)cc1` [compound 129, 4-(4-ethylphenyl)-1-(3-((4-methoxyphenyl)sulfonyl)-6-(trifluoromethoxy)quinolin-4-yl)piperidin-4-ol], the cytotoxicity at 40 µM is 0%.

`CCOC(=O)c1ccc2ncc(S(=O)(=O)c3ccc(CC)cc3)c(N3CCC(N4CCC(O)CC4)CC3)c2c1` [compound 130, ethyl 3-((4-ethylphenyl)sulfonyl)-4-(4-hydroxy-[1,4′-bipiperidin]-1′-yl)quinoline-6-carboxylate]: the cytotoxicity at 40 µM was found to be 40%.

For `CCOC(=O)c1ccc2ncc(S(=O)(=O)c3ccc(CC)cc3)c(N3CCCN(CCN(CC)CC)CC3)c2c1` [compound 131, ethyl 4-(4-(2-(diethylamino)ethyl)-1,4-diazepan-1-yl)-3-((4-ethylphenyl)sulfonyl)quinoline-6-carboxylate], the cytotoxicity at 40 µM turned out to be 50%.

Take `CCOC(=O)c1ccc2ncc(S(=O)(=O)c3ccc(CC)cc3)c(N3CCC(OCCN(CC)CC)CC3)c2c1` [compound 132, ethyl 4-(4-(2-(diethylamino)ethoxy)piperidin-1-yl)-3-((4-ethylphenyl)sulfonyl)quinoline-6-carboxylate]: the cytotoxicity at 40 µM amounted to 40%.

`CCOC(=O)c1ccc2ncc(S(=O)(=O)c3ccc(CC)cc3)c(N3CCCC(O)C3)c2c1` (stereo not drawn) [compound 135, ethyl 3-((4-ethylphenyl)sulfonyl)-4-(3-hydroxypiperidin-1-yl)quinoline-6-carboxylate]: the cytotoxicity at 40 µM was 30%.

For another assay, the system named is tumor endothelial cells (LL/2 lung cancer tumor). The assay is described as follows: Lung LL2 ex vivo model of tumor angiogenesis. The format is cell-based, mouse. To be noted: Mus musculus, Endothelial cell, 48 h, read-out: Cell death. The essentials:
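Read-out is live/dead fluorescence imaging (fluorescein diacetate green, propidium iodide red, 10 min at 37° C) at 2×, taken e.g. 48 h after drug addition. Fragments of mouse LL2 tumor are cultured in Matrigel with endothelial growth medium, usually 4 days, until new endothelial cells grow out, then treated.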
On to `CCCCCCCCCCCCCCOc1ccc(S(=O)(=O)c2cnc3ccc([S+](C)[O-])cc3c2N2CCC(N3CCC(N4CCCCC4)CC3)CC2)cc1F` (stereo not drawn) [compound 366, 4-([1,4′:1′,4″-terpiperidin]-1″-yl)-3-((3-fluoro-4-(tetradecyloxy)phenyl)sulfonyl)-6-(methylsulfinyl)quinoline], for which the cytotoxicity at 20 µM was found to be 10%.

`CCCCCCCCCCCCCCOc1ccc(S(=O)(=O)c2cnc3ccc([S+](C)[O-])cc3c2N2CCC(N3CCC(N4CCCC(O)C4)CC3)CC2)cc1F` (stereo not drawn) [compound 367, 1″-(3-((3-fluoro-4-(tetradecyloxy)phenyl)sulfonyl)-6-(methylsulfinyl)quinolin-4-yl)-[1,4′:1′,4″- terpiperidin]-3-ol]: the cytotoxicity at 20 µM turned out to be 5%.

For `CCCCCCCCCCCCOc1ccc(S(=O)(=O)c2cnc3ccc([S+](C)[O-])cc3c2N2CCC(N3CCC(N4CCN(CCO)CC4)CC3)CC2)cc1F` (stereo not drawn) [compound 368, 2-(4-(1′-(3-((4-(dodecyloxy)-3-fluorophenyl)sulfonyl)-6-(methylsulfinyl)quinolin-4-yl)-[1,4′-bipiperidin]-4-yl)piperazin-1-yl)ethanol], the cytotoxicity at 20 µM came out at 20%.

`CCCCCCCCCCCCOc1ccc(S(=O)(=O)c2cnc3ccc([S+](C)[O-])cc3c2N2CCC(N3CCC(N4CCN(C)CC4)CC3)CC2)cc1F` (stereo not drawn) [compound 370, 3-((4-(dodecyloxy)-3-fluorophenyl)sulfonyl)-4-(4-(4-methylpiperazin-1-yl)-[1,4′-bipiperidin]-1′-yl)-6-(methylsulfinyl)quinoline]: the cytotoxicity at 20 µM was 20%.

Consider `CCCCCCCCCCCCCCOc1ccc(S(=O)(=O)c2cnc3ccc([S+](C)[O-])cc3c2N2CCC(N3CCC(N4CCN(C)CC4)CC3)CC2)cc1F` (stereo not drawn) [compound 371, 3-((3-fluoro-4-(tetradecyloxy)phenyl)sulfonyl)-4-(4-(4-methylpiperazin-1-yl)-[1,4′-bipiperidin]-1′-yl)-6-(methylsulfinyl)quinoline], for which the cytotoxicity at 20 µM is 30%.

For `CCCCCCCCCCCCOc1ccc(S(=O)(=O)c2cnc3ccc([S+](C)[O-])cc3c2N2CCC(N3CCC(N4CCC(O)CC4)CC3)CC2)cc1F` (stereo not drawn) [compound 372, 1″-(3-((4-(dodecyloxy)-3-fluorophenyl)sulfonyl)-6-(methylsulfinyl)quinolin-4-yl)-[1,4′:1′,4″- terpiperidin]-4-ol], the cytotoxicity at 20 µM worked out at 20%.

As to `CCCCCCCCCCCCCCOc1ccc(S(=O)(=O)c2cnc3ccc([S+](C)[O-])cc3c2N2CCC(N3CCC(N4CCC(O)CC4)CC3)CC2)cc1F` (stereo not drawn) [compound 373, 1″-(3-((3-fluoro-4-(tetradecyloxy)phenyl)sulfonyl)-6-(methylsulfinyl)quinolin-4-yl)-[1,4′:1′,4″- terpiperidin]-4-ol], the cytotoxicity at 20 µM was determined as 20%.

Take `CCCCCCCCCCCCOc1ccc(S(=O)(=O)c2cnc3ccc([S+](C)[O-])cc3c2N2CCC(N3CCC(N4CCC(O)CC4)CC3)CC2)cc1` (stereo not drawn) [compound 374, 1″-(3-((4-(dodecyloxy)phenyl)sulfonyl)-6-(methylsulfinyl)quinolin-4-yl)-[1,4′:1′,4″-terpiperidin]-4-ol]: the cytotoxicity at 20 µM amounted to 20%.

`CCCCCCCCCCCCCCOc1ccc(S(=O)(=O)c2cnc3ccc([S+](C)[O-])cc3c2N2CCC(N3CCC(N4CCC(O)CC4)CC3)CC2)cc1` (stereo not drawn) [compound 375, 1″-(6-(methylsulfinyl)-3-((4-(tetradecyloxy)phenyl)sulfonyl)quinolin-4-yl)-[1,4′:1′,4″-terpiperidin]-4-ol]: the cytotoxicity at 20 µM was found to be 50%.

As to `CCCCCCCCCCCCCCCCOc1ccc(S(=O)(=O)c2cnc3ccc([S+](C)[O-])cc3c2N2CCC(N3CCN(CCO)CC3)CC2)cc1` (stereo not drawn) [compound 376, 2-(4-(1-(3-((4-(hexadecyloxy)phenyl)sulfonyl)-6-(methylsulfinyl)quinolin-4-yl)piperidin-4-yl)piperazin-1-yl)ethanol], the cytotoxicity at 20 µM worked out at 10%.

`CCCCCCCCCCCCCCCCOc1ccc(S(=O)(=O)c2cnc3ccc([S+](C)[O-])cc3c2N2CCC(N3CCC(N4CCCCC4)CC3)CC2)cc1` (stereo not drawn) [compound 377, 4-([1,4′:1′,4″-terpiperidin]-1″-yl)-3-((4-(hexadecyloxy)phenyl)sulfonyl)-6-(methylsulfinyl)quinoline]: the cytotoxicity at 20 µM came out at 10%.

As for `CCCCCCCCCCCCCCCCOc1ccc(S(=O)(=O)c2cnc3ccc([S+](C)[O-])cc3c2N2CCC(N3CCC(N4CCCC(O)C4)CC3)CC2)cc1` (stereo not drawn) [compound 378, 1″-(3-((4-(hexadecyloxy)phenyl)sulfonyl)-6-(methylsulfinyl)quinolin-4-yl)-[1,4′:1′,4″- terpiperidin]-3-ol], the cytotoxicity at 20 µM amounted to 30%.
